From the NIST ThermoML archive (doi:10.1016/j.jct.2018.08.005)
± gives the expanded uncertainty stated by the source.

Test: molar heat capacity at constant pressure; xn = mol fraction of the nth substance listed
Settings: 100 kPa, Liquid, DSC

CCOC(F)(C(F)(F)C(F)(F)C(F)(F)F)C(F)(C(F)(F)F)C(F)(F)F (stereo not given) [2-trifluoromethyl-3-ethoxydodecafluorohexane] + CC(C)OC(C)C
molar heat capacity at constant pressure [J/K/mol]
Settings | x1 = 0.25 | x1 = 0.375 | x1 = 0.5 | x1 = 0.625 | x1 = 0.75 | x1 = 1
290.5 K | 277.26 ± 16 | 310.54 ± 18 | 342.56 ± 20 | 375.58 ± 21 | 407.39 ± 23 | –
295.44 K | 279.61 ± 16 | 312.95 ± 18 | 345.14 ± 20 | 378.55 ± 22 | 410.41 ± 24 | –
297.91 K | – | – | – | – | – | 466.29 ± 27
300.38 K | 281.77 ± 16 | 315.36 ± 18 | 347.98 ± 20 | 381.52 ± 22 | 413.77 ± 24 | –
305.32 K | 284.47 ± 16 | 317.99 ± 18 | 350.3 ± 20 | 384.2 ± 22 | 416.46 ± 24 | –
307.79 K | – | – | – | – | – | 472.92 ± 27
310.26 K | 287.71 ± 16 | 320.4 ± 18 | 353.14 ± 20 | 387.17 ± 22 | 419.82 ± 24 | –
315.2 K | 290.42 ± 17 | 322.81 ± 18 | 355.98 ± 20 | 390.14 ± 22 | 422.85 ± 24 | –
317.66 K | – | – | – | – | – | 479.54 ± 27
320.13 K | 293.12 ± 17 | 325.66 ± 19 | 358.82 ± 21 | 393.11 ± 23 | 425.87 ± 25 | –
325.07 K | 295.64 ± 17 | 328.29 ± 19 | 361.66 ± 21 | 396.08 ± 23 | 428.9 ± 25 | –
327.54 K | – | – | – | – | – | 486.58 ± 28
330.01 K | 298.16 ± 17 | 330.92 ± 19 | 364.5 ± 21 | 399.35 ± 23 | 432.26 ± 25 | –
334.95 K | 300.69 ± 17 | 333.77 ± 19 | 367.08 ± 21 | 402.32 ± 23 | 434.61 ± 25 | –
337.42 K | – | – | – | – | – | 494.03 ± 28
339.89 K | 303.21 ± 17 | 336.4 ± 19 | 369.66 ± 21 | 405.29 ± 23 | 437.97 ± 25 | –
347.29 K | – | – | – | – | – | 500.66 ± 29
357.17 K | – | – | – | – | – | 508.53 ± 29
367.05 K | – | – | – | – | – | 517.23 ± 29
376.92 K | – | – | – | – | – | 523.85 ± 30
386.8 K | – | – | – | – | – | 531.72 ± 30
